One assay has as its system HepG2 Cells. Briefly: Total 125I-LDL binding to HepG2 cells. Format: cell-based, human. The following applies: for I-LDL BINDING: HepG2, 10 ug/ml 125I-LDL, 4 h, 4° C., n = 3, untreated 36.0; for LDL-binding (in words): HepG2 / hepatic cells. The text has this: HepG2 cells were obtained from Dr. Barbara Knowles of the Wistar Institute, Pennsylvania. The HepG2 stock monolayers were maintained under the same conditions as the fibroblast monolayers, in a medium comprising MEM supplemented with 10% heat-inactivated FBS, and 1% (v/v) each of penicillin-streptomycin solution, non-essential and essential amino acids, and L-glutamine.
For experiments using HepG2 cells, confluent stock monolayers were washed once with Dulbecco's PBS, dissociated with 0.05-0.02% trypsin-EDTA followed by treatment with deoxyribonuclease I (0.1%), and were seeded (3.0×10^6) under identical conditions. The experimental MEM contained 25% (v/v) D2 O, 9% (v/v) delipidated FBS, and 1% (v/v) each of heat-inactivated FBS, penicillin-streptomycin, essential and non-essential amino acids, L-glutamine and 20 mM HEPES.
(§1) The fibroblast and hepatoblastoma cells were cultured in media containing 25% D2 O and 1% FBS in order to determine de novo cholesterol synthesis under conditions that permit receptor mediated cholesterol transport, according to the method of Easterman & Javitt et al., J. Lipid Res., 26: 950-954 (1985). Dish cultures of each cell type were prepared, and 26-aminocholesterol, dissolved in N,N-dimethylformamide (DMF, 9 ul per dish, 0.3% v/v) was added to each culture. The cells were then grown to confluence (96 hours, day 5). […] Duplicate or triplicate dishes containing 9 ul of DMF, but without 26-aminocholesterol, were used as controls.
LDL (d, 1.019-1.03) was isolated by sequential preparative ultracentrifugation of normal human plasma, using solid KBr for density adjustment, according to the methods of Havel et al., J. Clin. Invest., 34: 1345-1353 (1955) and Radding & Steinberg, J Clin. Invest., 39: 1560-1569 (1960). The isolated LDL was then iodinated with ^125 INa by the monochloride procedure of McFarlane, Nature, 102: 53 (1958), as modified for lipoproteins according to Bilheimer et al., Biochim. Biophys. Acta. 260: 212-221 (1972). To remove free iodine, the LDL preparation was subjected to column chromatography on a Sephadex G-25M disposable mini-column (Pharmacia PD-10) and was dialized against 0.15 M NaCl and […] EDTA, pH 7.4. The specific activity of all LDL preparations ranged between 160-300 cpm/mg of LDL proteins. ^125 I-LDL was stored at 4° C. and was sterilized by filtration through a 0.45 um membrane just prior to incubation with the treated fibroblast and hepatoblastoma cell cultures and control cultures.
For binding studies, a fixed concentration of 10 ug/ml of ^125 I-LDL was added directly to the monolayers of the confluent culture medium (at or near the 96th hour) and incubation was continued for a further 4 hours at 37° C. for fibroblasts and 4° C. for HepG2 cells. After this incubation, the culture dishes were placed on ice, the medium was removed, and the cell monolayers were washed as described in Goldstein & Brown, J. Biol. Chem., 249: 5153-5162 (1974). The monolayers were then scraped off the dishes with a teflon policeman and were solubilized with 1 ml of 0.1 N NaOH.
Cell-associated radioactivity was measured in a Packard auto gamma scintillation spectrometer Model 5160, and cell protein was measured by the method of Lowry et al., J. Biol. Chem., 193: 265-275 (1951), using bovine serum albumin as a standard. Total ^125 I-LDL binding was expressed as the mass of ^125 I-LDL (mg) per mg of cell protein. […]

For a further assay, the system named is Human Fibroblasts. The assay can be described thus: De novo cholesterol synthesis in human fibroblasts (D2O). It is filed as cell-based. The following applies: for % DE NOVO (De Novo Cholesterol Synthesis): 96 h, n = 3, untreated 19.0. Here is the method:
Normal LDLR(+) human fibroblasts (GM3440) were obtained from the National Institute of General Medical Sciences Human Genetic Cell Repository. Stock fibroblast monolayers were maintained in T-75 disposable Nunc flasks, in a medium comprising 10 ml of MEM (Eagle's Minimum Essential Medium with Earl's salts, pH 7.4) supplemented with 10% (v/v) fetal bovine serum (FBS), 2% (v/v) non-essential and essential amino acids, 1% (v/v) MEM vitamins, 1% L-glutamine (292 ug/ml), 1% penicillin (100 U/ml)-streptomycin (100 ug/ml). The fibroblast stock was maintained at 37° C. in a humidified atmosphere of 5% CO2 and 95% air.
For experiments using fibroblasts, confluent stock cultures (5-18 passages) were washed once with Dulbecco's PBS (phosphate buffered saline) prior to the addition of 3 ml aliquots of experimental MEM containing 25% (v/v) D2 O, 9% (v/v) dilapidated FBS, 1% FBS (v/v), 1% MEM vitamins and L-glutamine, and 2% of essential and non-essential amino acids and 20 mM HEPES buffer.
as §1
After 96 hours of incubation, medium was removed from the cell cultures, and the cells were washed with Dulbecco's PBS and were harvested with 0.05% trypsin - 0.02% EDTA. The protease was deactivated with an equivolume aliquot of soybean trypsin inhibitor, and the resulting cell suspension was centrifuged for 5 minutes at 500xg. An internal standard of 5B-cholestan-3B-ol was added to the pellets prior to extraction with an 8:4:3 chloroform:methanol:water Folch mixture, as described in Folch et al., J. Biol. Chem., 266: 497-509 (1957). An aliquot of the extract was blown to dryness under nitrogen and silylated with 2:1:1 MSTFA (a sylated reagent supplied by Pierce Co.): toluene:-pyridine. Free cholesterol was determined by gas-liquid chromatography (GLC) on a Perkin-Elmer capillary gas-liquid chromatography model 8320 fitted with a 20 m DE-1 methylsilicon glass column (Supelco). The remaining extract was dried and saponified with 2% ethanolic KOH at 80° C. for one hour. The […] was then re-extracted and total cholesterol was measured by GLC after silylation. Cholesterol ester was calculated as the difference between the total and free cholesterol determinations. Newly synthesized cholesterol was determined by GLC-MS isotope mass ratios, using a Hewlett-Packard GC-MS spectrometer model 5890 fitted with DB-1 methyl silicon 0.18 i.d. 20 m glass column (Supelco), according to the method of J. Lipid. Res., 26: 950-954, supra. […]

The structures appear in SMILES notation. Entries after “also recorded” stand apart in the source; their conditions may differ.

`CC(CO)CCC[C@@H](C)[C@H]1CC[C@H]2[C@@H]3CC=C4C[C@@H](O)CC[C@]4(C)[C@H]3CC[C@]12C` (some centres unmarked) [26-OH, 26-hydroxycholesterol]: in the assay on HepG2 Cells (0.625 uM), the “I-LDL BINDING” value is on record as 53.6 +/- 1.3 ug LDL protein per mg cell pro. In the assay with HepG2 Cells, the “LDL-binding (in words)” value is listed as “do not provide a similar reduction”. In addition, the “de novo cholesterol synthesis (in words)” value in the assay with Human Fibroblasts is on record as “significant reductions”. Moreover, the “% DE NOVO (De Novo Cholesterol Synthesis)” value (“% DE NOVO” for short) in the assay with Human Fibroblasts (0.625 uM) worked out at 3.9%.

In the case of `C[C@@H](CN)CCC[C@@H](C)[C@H]1CC[C@H]2[C@@H]3CC=C4C[C@@H](O)CC[C@]4(C)[C@H]3CC[C@]12C` [26-NH2, 26-aminocholesterol], the “I-LDL BINDING” value in the assay with HepG2 Cells (0.156 uM) is given as 40.9 +/- 3.1 ug LDL protein per mg cell pro; with HepG2 Cells (0.312 uM) it was 43.9 +/- 4.0 ug LDL protein per mg cell pro; in the assay on HepG2 Cells (0.625 uM) it was 52.4 +/- 8.8 ug LDL protein per mg cell pro. Besides, the “LDL-binding (in words)” value in the assay on HepG2 Cells is given as “do not provide a similar reduction; also recorded: little or no effect; also recorded: no impact”. In addition, the “de novo cholesterol synthesis (in words)” value in the assay on Human Fibroblasts is listed as “significant reductions”. The “% DE NOVO” value was 16.7% with Human Fibroblasts (0.156 uM), 10.0% in the assay on Human Fibroblasts (0.312 uM) and 2.7% in the assay with Human Fibroblasts (0.625 uM).

Regarding `CC(CS)CCC[C@@H](C)[C@H]1CC[C@H]2[C@@H]3CC=C4C[C@@H](O)CC[C@]4(C)[C@H]3CC[C@]12C` (some centres unmarked) [26-SH], the “I-LDL BINDING” value is 37.8 +/- 3.4 ug LDL protein per mg cell pro in the assay on HepG2 Cells (5.0 uM), 45.8 +/- 3.9 ug LDL protein per mg cell pro in the assay with HepG2 Cells (10.0 uM) and 35.7 +/- 4.8 ug LDL protein per mg cell pro in the assay on HepG2 Cells (20.0 uM). Besides, the “LDL-binding (in words)” value in the assay with HepG2 Cells is “no impact”. Also, in the assay on Human Fibroblasts, the “de novo cholesterol synthesis (in words)” value is “no impact”. Moreover, the “% DE NOVO” value in the assay on Human Fibroblasts (5.0 uM) was determined as 27.8%; in the assay with Human Fibroblasts (10.0 uM), 21.9%; in the assay with Human Fibroblasts (20.0 uM), 13.6%.

Source of the values: patent US4939134A, “26-aminocholesterol and derivatives and analogs thereof in the regulation of cholesterol accumulation in body tissue” (New York University, priority 1988, dated 1990).
